US9730446B2, “Herbicidal compositions comprising 4-amino-3-chloro-6-(4-chloro-2-fluoro-3-methoxyphenyl)pyridine-2-carboxylic acid or a derivative thereof and propyzamide” (Dow AgroSciences LLC, priority 2013, dated 2017)

Key:
Assay type in all cases: in vivo
[1] = system: ABUTH Abutilon theophrasti Medik. (velvetleaf); assay: Postemergent herbicidal activity, greenhouse; settings: foliar, 14 d
Experimental: (§1) Evaluation of Postemergent Herbicidal Activity. Seeds or nutlets of the desired test plant species were planted in Sun Gro Metro-Mix® 360 planting mixture, which typically has a pH of 6.0 to 6.8 and an organic matter content of about 30 percent, in plastic pots with a surface area of 64 square centimeters (cm^2). […] The plants were grown for 7-21 days (d) in a greenhouse with an approximate 15 hour (h) photoperiod which was maintained at about 23-29° C. during the day and 22-28° C. during the night. Nutrients and water were added on a regular basis and supplemental lighting was provided with overhead metal halide 1000-Watt lamps as necessary. The plants were employed for testing when they reached the first or second true leaf stage.
(§2) A weighed amount, determined by the highest rate to be tested, of each test compound was placed in a 25 milliliter (mL) glass vial and was dissolved in 4 mL of a 97:3 volume per volume (v/v) mixture of acetone and dimethyl sulfoxide (DMSO) to obtain concentrated stock solutions. […] The concentrated stock solutions obtained were diluted with 20 mL of an aqueous mixture containing acetone, water, isopropyl alcohol, DMSO, Atplus 411F crop oil concentrate, and Triton® X-155 surfactant in a 48.5:39:10:1.5:1.0:0.02 v/v ratio to obtain spray solutions containing the highest application rates. Additional application rates were obtained by serial dilution of 12 mL of the high rate solution into a solution containing 2 mL of a 97:3 v/v mixture of acetone and DMSO and 10 mL of an aqueous mixture containing acetone, water, isopropyl alcohol, DMSO, Atplus 411F crop oil concentrate, and Triton X-155 surfactant in a 48.5:39:10:1.5:1.0:0.02 v/v ratio to obtain 1/2×, 1/4×, 1/8× and 1/16× rates of the high rate. Compound requirements are based upon a 12 mL application volume at a rate of 187 liters per hectare (L/ha). Formulated compounds were applied to the plant material with an overhead Mandel track sprayer equipped with 8002E nozzles calibrated to deliver 187 L/ha over an application area of 0.503 square meters (m^2) at a spray height of 18 inches (43 cm) above the average plant canopy height. Control plants were sprayed in the same manner with the solvent blank.
(§3) Treatments consisted of the methyl ester of 4-amino-3-chloro-6-(4-chloro-2-fluoro-3-methoxyphenyl)pyridine-2-carboxylic acid (Cmpd 1) as technical grade material and propyzamide (Kerb 50 W) alone and in combination.
(§4) The treated plants and control plants were placed in a greenhouse as described above and watered by subirrigation to prevent wash-off of the test compounds. After 14 d, the condition of the test plants as compared with that of the untreated plants was determined visually and scored on a scale of 0 to 100 percent where 0 corresponds to no injury and 100 corresponds to complete kill.
(§5) Colby's equation was used to determine the herbicidal effects expected from the mixtures (Colby, S. R. Calculation of the synergistic and antagonistic response of herbicide combinations. Weeds 1967, 15, 20-22). More specifically, the following equation was used to calculate the expected activity of mixtures containing two active ingredients, A and B: Expected=A+B−(A×B/100) A=observed efficacy of active ingredient A at the same concentration as used in the mixture; B=observed efficacy of active ingredient B at the same concentration as used in the mixture.

[2] = system: AMARE Amaranthus retroflexus L. (redroot pigweed); assay: Postemergent herbicidal activity, greenhouse; settings: foliar, 14 d
Experimental: as §1, §2, §3, §4, §5

[3] = system: BRSNW Brassica napus (winter oilseed rape); assay: Postemergent herbicidal activity, greenhouse; settings: foliar, 14 d
Experimental: as §1, §2, §3, §4, §5

[4] = system: CHEAL Chenopodium album L. (common lambsquarters); assay: Postemergent herbicidal activity, greenhouse; settings: foliar, 14 d
Experimental: as §1, §2, §3, §4, §5

[5] = system: CIRAR Cirsium arvense (L.) Scop. (Canada thistle); assay: Postemergent herbicidal activity, greenhouse; settings: foliar, 14 d
Experimental: as §1, §2, §3, §4, §5

[6] = system: EPHHL Euphorbia heterophylla L. (wild poinsettia); assay: Postemergent herbicidal activity, greenhouse; settings: foliar, 14 d
Experimental: as §1, §2, §3, §4, §5

[7] = system: GLXMA Glycine max (volunteer soybean); assay: Postemergent herbicidal activity, greenhouse; settings: foliar, 14 d
Experimental: as §1, §2, §3, §4, §5

[8] = system: IPOHE Ipomoea hederacea (L.) Jacq. (ivyleaf morningglory); assay: Postemergent herbicidal activity, greenhouse; settings: foliar, 14 d
Experimental: as §1, §2, §3, §4, §5

[9] = system: POLCO Polygonum convolvulus L. (wild buckwheat); assay: Postemergent herbicidal activity, greenhouse; settings: foliar, 14 d
Experimental: as §1, §2, §3, §4, §5

[10] = system: SETFA Setaria faberi Herrm. (giant foxtail); assay: Postemergent herbicidal activity, greenhouse; settings: foliar, 14 d
Experimental: as §1, §2, §3, §4, §5

[11] = system: STEME Stellaria media (L.) Vill. (common chickweed); assay: Postemergent herbicidal activity, greenhouse; settings: foliar, 14 d
Experimental: as §1, §2, §3, §4, §5

[12] = system: VIOTR Viola tricolor L. (wild violet); assay: Postemergent herbicidal activity, greenhouse; settings: foliar, 14 d
Experimental: as §1, §2, §3, §4, §5

[13] = system: GERSS Geranium sp. (cranesbill); assay: Field trial, visual weed control in winter oilseed rape
Experimental: (§6) Multiple small plot research experiments were conducted to evaluate efficacy and tolerance of winter oilseed rape to compositions described herein. Typical small plots (2-4×4-10 meters (m)) were used in growers' fields under natural conditions with normal commercial cultural practices. Backpack sprayers were used to apply all treatments based on unit area. The methyl ester of formula (I) and propyzamide were tested alone and in combination at varying rates. […] Crop stage was at Growth Stage 39-50. Visual crop injury ratings were collected 32, 49, and 74 days after treatment. […] The reported values are means. […] The following abbreviations are used in Tables 2-4: • GERSS Geranium sp. (cranesbill) • POAAN Poa annua (annual bluegrass) • VERSS Veronica sp.

[14] = system: POAAN Poa annua (annual bluegrass); assay: as above
Experimental: as §6

[15] = system: VERSS Veronica sp. (speedwell); assay: as above
Experimental: as §6

[16] = system: winter oilseed rape; assay: Field trial, visual crop injury ratings; settings: varying rates, crop Growth Stage 39-50, 32, 49, and 74 days after treatment, in each case
Experimental: Multiple small plot research experiments were conducted to evaluate efficacy and tolerance of winter oilseed rape to compositions described herein. Typical small plots (2-4×4-10 meters (m)) were used in growers' fields under natural conditions with normal commercial cultural practices. Backpack sprayers were used to apply all treatments based on unit area. The methyl ester of formula (I) and propyzamide were tested alone and in combination at varying rates. Application water volume was 150 L/ha. Crop stage was at Growth Stage 39-50. Visual crop injury ratings were collected 32, 49, and 74 days after treatment. […] The reported values are means.

[17] = Propyzamide 250 g ai/ha, 32 DAAA
[18] = Propyzamide 250 g ai/ha, 58 DAAA
[19] = Propyzamide 250 g ai/ha, 80 DAAA
[20] = Propyzamide 500 g ai/ha, 32 DAAA
[21] = Propyzamide 500 g ai/ha, 58 DAAA
[22] = Propyzamide 500 g ai/ha, 80 DAAA
[23] = Propyzamide 750 g ai/ha, 32 DAAA
[24] = Propyzamide 750 g ai/ha, 58 DAAA
[25] = Propyzamide 750 g ai/ha, 80 DAAA

C#CC(C)(C)NC(=O)c1cc(Cl)cc(Cl)c1 [Propyzamide, 3,5-dichloro-N-(1,1-dimethylpropynyl)benzamide]
% control rated visually, ob (observed) ([1]; Propyzamide 285 g ai/ha): 5%
% control rated visually, ob (observed) ([1]; Propyzamide 570 g ai/ha): 0%
% control rated visually, ob (observed) ([2]; Propyzamide 285 g ai/ha): 0%
% control rated visually, ob (observed) ([2]; Propyzamide 570 g ai/ha): 10%
% control rated visually, ob (observed) ([3]; Propyzamide 285 g ai/ha): 5%
% control rated visually, ob (observed) ([3]; Propyzamide 570 g ai/ha): 20%
% control rated visually, ob (observed) ([4]; Propyzamide 285 g ai/ha): 0%
% control rated visually, ob (observed) ([4]; Propyzamide 570 g ai/ha): 0%
% control rated visually, ob (observed) ([5]; Propyzamide 285 g ai/ha): 0%
% control rated visually, ob (observed) ([5]; Propyzamide 570 g ai/ha): 0%
% control rated visually, ob (observed) ([6]; Propyzamide 285 g ai/ha): 0%
% control rated visually, ob (observed) ([6]; Propyzamide 570 g ai/ha): 0%
% control rated visually, ob (observed) ([7]; Propyzamide 285 g ai/ha): 10%
% control rated visually, ob (observed) ([7]; Propyzamide 570 g ai/ha): 15%
% control rated visually, ob (observed) ([8]; Propyzamide 285 g ai/ha): 10%
% control rated visually, ob (observed) ([8]; Propyzamide 570 g ai/ha): 17%
% control rated visually, ob (observed) ([9]; Propyzamide 285 g ai/ha): 5%
% control rated visually, ob (observed) ([9]; Propyzamide 570 g ai/ha): 15%
% control rated visually, ob (observed) ([10]; Propyzamide 285 g ai/ha): 0%
% control rated visually, ob (observed) ([10]; Propyzamide 570 g ai/ha): 0%
% control rated visually, ob (observed) ([11]; Propyzamide 285 g ai/ha): 7%
% control rated visually, ob (observed) ([11]; Propyzamide 570 g ai/ha): 75%
% control rated visually, ob (observed) ([12]; Propyzamide 285 g ai/ha): 0%
% control rated visually, ob (observed) ([12]; Propyzamide 570 g ai/ha): 0%
% control rated visually, ob (observed) [13, 17]: 5.0%
% control rated visually, ob (observed) [13, 18]: 17.5%
% control rated visually, ob (observed) [13, 19]: 22.5%
% control rated visually, ob (observed) [13, 20]: 20.0%
% control rated visually, ob (observed) [13, 21]: 35.0%
% control rated visually, ob (observed) [13, 22]: 28.8%
% control rated visually, ob (observed) [13, 23]: 18.8%
% control rated visually, ob (observed) [13, 24]: 25.0%
% control rated visually, ob (observed) [13, 25]: 33.8%
% control rated visually, ob (observed) [14, 17]: 12.5%
% control rated visually, ob (observed) [14, 18]: 12.5%
% control rated visually, ob (observed) [14, 19]: 45.0%
% control rated visually, ob (observed) [14, 20]: 15.0%
% control rated visually, ob (observed) [14, 21]: 67.5%
% control rated visually, ob (observed) [14, 22]: 95.0%
% control rated visually, ob (observed) [14, 23]: 37.5%
% control rated visually, ob (observed) [14, 24]: 92.5%
% control rated visually, ob (observed) [14, 25]: 98.3%
% control rated visually, ob (observed) [15, 17]: 43.8%
% control rated visually, ob (observed) [15, 19]: 100.0%
% control rated visually, ob (observed) [15, 20]: 60.0%
% control rated visually, ob (observed) [15, 22]: 100.0%
% control rated visually, ob (observed) [15, 23]: 54.3%
% control rated visually, ob (observed) [15, 25]: 100.0%
Visual crop injury rating [16]: 0 % injury
